The experiment deals with T1, ZENC (Neurospora crassa, UniProt Q1K8M1).
T1 construct: gene NCU05345; codon-optimised full gene (888 bp; 295 residues in abstract, 296 in results) fused to alpha-factor signal peptide in pPIC9K; secreted from Pichia pastoris GS115, HiTrap Q purified; about 29 kDa by SDS-PAGE; proposed catalytic triad Ser117, Asp141, His274
In words: HPLC with fluorescence detection of remaining substrate; nonlinear Hill fit with n = […]. In kind it is biochemical. The settings on record: 50 mM Tris-HCl pH 8.0, 45 °C, 3 min; substrate range printed as 2 to 220 mM.

T1 sequence (Q1K8M1 entry or part of it): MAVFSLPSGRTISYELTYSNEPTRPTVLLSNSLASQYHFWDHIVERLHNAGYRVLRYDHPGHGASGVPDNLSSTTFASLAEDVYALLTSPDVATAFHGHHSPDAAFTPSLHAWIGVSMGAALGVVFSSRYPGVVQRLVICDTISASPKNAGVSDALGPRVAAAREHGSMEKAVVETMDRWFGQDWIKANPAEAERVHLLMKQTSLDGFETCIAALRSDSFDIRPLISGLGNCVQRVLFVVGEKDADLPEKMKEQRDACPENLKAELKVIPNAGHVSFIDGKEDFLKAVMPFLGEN

As for `C[C@H]1CCCC(=O)CCC/C=C/c2cc(O)cc(O)c2C(=O)O1` [zearalenone], the Km (in general, the concentration of substrate that gives half-maximal velocity) amounted to 38.6 ± 5.87 µM.

These data come from publication PMC6301899, “Characterization, expression and application of a zearalenone degrading enzyme from Neurospora crassa” (AMB Express, 2018).
